Two compounds from publication PMC8315109 (Science signaling, 2021) can be followed below.

Experiment [1] concerns the target T1, Jupiter microtubule-associated homolog 2 (JPT2) (Homo sapiens, UniProt Q9H910).
T1 sequence (Q9H910 1-218 isoform Q9H910-3): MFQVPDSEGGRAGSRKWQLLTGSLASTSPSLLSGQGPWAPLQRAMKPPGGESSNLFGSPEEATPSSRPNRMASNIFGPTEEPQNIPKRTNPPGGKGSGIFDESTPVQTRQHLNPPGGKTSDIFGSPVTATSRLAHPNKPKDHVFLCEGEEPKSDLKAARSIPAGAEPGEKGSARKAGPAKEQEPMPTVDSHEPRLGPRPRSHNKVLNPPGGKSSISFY
In words: […]-NAADP radioligand filtration binding, displacement by HPLC-purified NADP.

Experiment [2] addresses T1, Jupiter microtubule-associated homolog 2 (JPT2). Description: […]-NAADP radioligand filtration binding, displacement by unlabeled NAADP.

Take `NC(=O)c1ccc[n+]([C@@H]2O[C@H](COP(=O)(O)OP(=O)(O)OC[C@H]3O[C@@H](n4cnc5c(N)ncnc54)[C@H](OP(=O)(O)O)[C@@H]3O)[C@@H](O)[C@H]2O)c1` [NADP]: the IC50 in experiment [1] amounted to 0.334 ± 0.076 µM.

In turn, `Nc1ncnc2c1ncn2[C@@H]1O[C@H](COP(=O)(O)OP(=O)(O)OC[C@H]2O[C@@H]([n+]3cccc(C(=O)O)c3)[C@H](O)[C@@H]2O)[C@@H](O)[C@H]1OP(=O)(O)O` [NAADP] yielded an IC50 in experiment [2] of 0.02 ± 0.0036 µM.

Broadly, the IC50 is the concentration that gives 50% inhibition.
